Measurements: ChEMBL document CHEMBL3046595, “Novel furoxan NO-donor pemetrexed derivatives: design, synthesis, and preliminary biological evaluation” (2009)

What was measured:
Assay type in all cases: functional
A549 [1] = test: Cytotoxicity against Homo sapiens (human) A549 cells at 1 x 10^-6 mol/L after 48 hr by MTT assay; conditions: A549, 48 h
A549 [2] = test: Cytotoxicity against Homo sapiens (human) A549 cells at 10 x 10^-6 mol/L after 48 hr by MTT assay; conditions: A549, 48 h
A549 [3] = test: Cytotoxicity against Homo sapiens (human) A549 cells at 0.1 x 10^-6 mol/L after 48 hr by MTT assay; conditions: A549, 48 h
SMMC-7721 [4] = test: Cytotoxicity against Homo sapiens (human) SMMC7721 cells at 10 x 10^-6 mol/L after 48 hr by MTT assay; conditions: SMMC-7721, 48 h
SMMC-7721 [5] = test: Cytotoxicity against Homo sapiens (human) SMMC7721 cells at 1 x 10^-6 mol/L after 48 hr by MTT assay; conditions: SMMC-7721, 48 h
HL-60 [6] = test: Cytotoxicity against Homo sapiens (human) HL60 cells at 10 x 10^-6 mol/L after 48 hr by MTT assay; conditions: HL-60, 48 h
SMMC-7721 [7] = test: Cytotoxicity against Homo sapiens (human) SMMC7721 cells at 0.1 x 10^-6 mol/L after 48 hr by MTT assay; conditions: SMMC-7721, 48 h
HL-60 [8] = test: Cytotoxicity against Homo sapiens (human) HL60 cells at 1 x 10^-6 mol/L after 48 hr by MTT assay; conditions: HL-60, 48 h
HL-60 [9] = test: Cytotoxicity against Homo sapiens (human) HL60 cells at 0.1 x 10^-6 mol/L after 48 hr by MTT assay; conditions: HL-60, 48 h
BGC-823 [10] = test: Cytotoxicity against Homo sapiens (human) BGC823 cells at 10 x 10^-6 mol/L after 48 hr by MTT assay; conditions: BGC-823, 48 h
BGC-823 [11] = test: Cytotoxicity against Homo sapiens (human) BGC823 cells at 0.1 x 10^-6 mol/L after 48 hr by MTT assay; conditions: BGC-823, 48 h
BGC-823 [12] = test: Cytotoxicity against Homo sapiens (human) BGC823 cells at 1 x 10^-6 mol/L after 48 hr by MTT assay; conditions: BGC-823, 48 h

## CCOC(=O)[C@H](CCC(=O)OCCOc1no[n+]([O-])c1S(=O)(=O)c1ccccc1)NC(=O)c1ccc(CCc2c[nH]c3[nH]c(N)nc(=O)c23)cc1
A549 [1]
  inhibition at 1 µM: < 50%
A549 [2]
  inhibition at 10 µM: < 50%
A549 [3]
  inhibition at 0.1 µM: < 50%
SMMC-7721 [4]
  inhibition at 10 µM: < 50%
SMMC-7721 [5]
  inhibition at 1 µM: < 50%
HL-60 [6]
  inhibition at 10 µM: < 50%
SMMC-7721 [7]
  inhibition at 0.1 µM: < 50%
HL-60 [8]
  inhibition at 1 µM: 50%
HL-60 [9]
  inhibition at 0.1 µM: < 50%
BGC-823 [10]
  inhibition at 10 µM: < 50%
BGC-823 [11]
  inhibition at 0.1 µM: < 50%
BGC-823 [12]
  inhibition at 1 µM: < 50%

## CCOC(=O)[C@H](CCC(=O)OC(C)COc1no[n+]([O-])c1S(=O)(=O)c1ccccc1)NC(=O)c1ccc(CCc2c[nH]c3[nH]c(N)nc(=O)c23)cc1 (stereo partly drawn)
A549 [1]
  inhibition at 1 µM: < 50%
A549 [2]
  inhibition at 10 µM: < 50%
A549 [3]
  inhibition at 0.1 µM: < 50%
SMMC-7721 [4]
  inhibition at 10 µM: < 50%
SMMC-7721 [5]
  inhibition at 1 µM: < 50%
HL-60 [6]
  inhibition at 10 µM: < 50%
SMMC-7721 [7]
  inhibition at 0.1 µM: < 50%
HL-60 [8]
  inhibition at 1 µM: > 80%
HL-60 [9]
  inhibition at 0.1 µM: > 80%
BGC-823 [10]
  inhibition at 10 µM: < 50%
BGC-823 [11]
  inhibition at 0.1 µM: < 50%
BGC-823 [12]
  inhibition at 1 µM: > 80%

## CCOC(=O)[C@H](CCC(=O)OCCCOc1no[n+]([O-])c1S(=O)(=O)c1ccccc1)NC(=O)c1ccc(CCc2c[nH]c3[nH]c(N)nc(=O)c23)cc1
A549 [1]
  inhibition at 1 µM: < 50%
A549 [2]
  inhibition at 10 µM: < 50%
A549 [3]
  inhibition at 0.1 µM: < 50%
SMMC-7721 [4]
  inhibition at 10 µM: < 50%
SMMC-7721 [5]
  inhibition at 1 µM: < 50%
HL-60 [6]
  inhibition at 10 µM: < 50%
SMMC-7721 [7]
  inhibition at 0.1 µM: < 50%
HL-60 [8]
  inhibition at 1 µM: 50%
HL-60 [9]
  inhibition at 0.1 µM: < 50%
BGC-823 [10]
  inhibition at 10 µM: < 50%
BGC-823 [11]
  inhibition at 0.1 µM: < 50%
BGC-823 [12]
  inhibition at 1 µM: < 50%

## CCOC(=O)[C@H](CCC(=O)OCCCCOc1no[n+]([O-])c1S(=O)(=O)c1ccccc1)NC(=O)c1ccc(CCc2c[nH]c3[nH]c(N)nc(=O)c23)cc1
A549 [1]
  inhibition at 1 µM: < 50%
A549 [2]
  inhibition at 10 µM: < 50%
A549 [3]
  inhibition at 0.1 µM: < 50%
SMMC-7721 [4]
  inhibition at 10 µM: < 50%
SMMC-7721 [5]
  inhibition at 1 µM: > 80%
HL-60 [6]
  inhibition at 10 µM: < 50%
SMMC-7721 [7]
  inhibition at 0.1 µM: < 50%
HL-60 [8]
  inhibition at 1 µM: 50%
HL-60 [9]
  inhibition at 0.1 µM: 50%
BGC-823 [10]
  inhibition at 10 µM: < 50%
BGC-823 [11]
  inhibition at 0.1 µM: < 50%
BGC-823 [12]
  inhibition at 1 µM: > 80%

## CCOC(=O)[C@H](CCC(=O)OCC#CCOc1no[n+]([O-])c1S(=O)(=O)c1ccccc1)NC(=O)c1ccc(CCc2c[nH]c3[nH]c(N)nc(=O)c23)cc1
A549 [1]
  inhibition at 1 µM: < 50%
A549 [2]
  inhibition at 10 µM: < 50%
A549 [3]
  inhibition at 0.1 µM: < 50%
SMMC-7721 [4]
  inhibition at 10 µM: < 50%
SMMC-7721 [5]
  inhibition at 1 µM: 50%
HL-60 [6]
  inhibition at 10 µM: 50%
SMMC-7721 [7]
  inhibition at 0.1 µM: < 50%
HL-60 [8]
  inhibition at 1 µM: > 80%
HL-60 [9]
  inhibition at 0.1 µM: < 50%
BGC-823 [11]
  inhibition at 0.1 µM: < 50%
BGC-823 [12]
  inhibition at 1 µM: 50%

## CCOC(=O)[C@H](CCC(=O)OCCCCCOc1no[n+]([O-])c1S(=O)(=O)c1ccccc1)NC(=O)c1ccc(CCc2c[nH]c3[nH]c(N)nc(=O)c23)cc1
A549 [1]
  inhibition at 1 µM: 50%
A549 [2]
  inhibition at 10 µM: < 50%
A549 [3]
  inhibition at 0.1 µM: < 50%
SMMC-7721 [4]
  inhibition at 10 µM: < 50%
SMMC-7721 [5]
  inhibition at 1 µM: < 50%
HL-60 [6]
  inhibition at 10 µM: < 50%
SMMC-7721 [7]
  inhibition at 0.1 µM: < 50%
HL-60 [8]
  inhibition at 1 µM: > 80%
HL-60 [9]
  inhibition at 0.1 µM: > 80%
BGC-823 [10]
  inhibition at 10 µM: < 50%
BGC-823 [11]
  inhibition at 0.1 µM: 50%
BGC-823 [12]
  inhibition at 1 µM: 50%

## CCOC(=O)[C@H](CCC(=O)OCCCCCCOc1no[n+]([O-])c1S(=O)(=O)c1ccccc1)NC(=O)c1ccc(CCc2c[nH]c3[nH]c(N)nc(=O)c23)cc1
A549 [1]
  inhibition at 1 µM: < 50%
A549 [2]
  inhibition at 10 µM: < 50%
A549 [3]
  inhibition at 0.1 µM: < 50%
SMMC-7721 [4]
  inhibition at 10 µM: < 50%
SMMC-7721 [5]
  inhibition at 1 µM: > 80%
HL-60 [6]
  inhibition at 10 µM: < 50%
SMMC-7721 [7]
  inhibition at 0.1 µM: < 50%
HL-60 [8]
  inhibition at 1 µM: > 80%
HL-60 [9]
  inhibition at 0.1 µM: < 50%
BGC-823 [10]
  inhibition at 10 µM: < 50%
BGC-823 [11]
  inhibition at 0.1 µM: < 50%
BGC-823 [12]
  inhibition at 1 µM: 50%

## CCOC(=O)[C@H](CCC(=O)OCCOCCOc1no[n+]([O-])c1S(=O)(=O)c1ccccc1)NC(=O)c1ccc(CCc2c[nH]c3[nH]c(N)nc(=O)c23)cc1
A549 [1]
  inhibition at 1 µM: < 50%
A549 [3]
  inhibition at 0.1 µM: < 50%
SMMC-7721 [5]
  inhibition at 1 µM: < 50%
SMMC-7721 [7]
  inhibition at 0.1 µM: < 50%
HL-60 [8]
  inhibition at 1 µM: > 80%
HL-60 [9]
  inhibition at 0.1 µM: < 50%
BGC-823 [11]
  inhibition at 0.1 µM: < 50%
BGC-823 [12]
  inhibition at 1 µM: < 50%

## Nc1nc2[nH]cc(CCc3ccc(C(=O)N[C@@H](CCC(=O)O)C(=O)O)cc3)c2c(=O)[nH]1 [PEMETREXED DISODIUM]
A549 [1]
  inhibition at 1 µM: < 50%
A549 [2]
  inhibition at 10 µM: < 50%
A549 [3]
  inhibition at 0.1 µM: < 50%
SMMC-7721 [4]
  inhibition at 10 µM: < 50%
SMMC-7721 [5]
  inhibition at 1 µM: < 50%
HL-60 [6]
  inhibition at 10 µM: > 80%
SMMC-7721 [7]
  inhibition at 0.1 µM: < 50%
HL-60 [8]
  inhibition at 1 µM: > 80%
HL-60 [9]
  inhibition at 0.1 µM: 50%
BGC-823 [10]
  inhibition at 10 µM: 50%
BGC-823 [11]
  inhibition at 0.1 µM: < 50%
BGC-823 [12]
  inhibition at 1 µM: < 50%
